One test deals with Cathepsin S (UniProt P25774). Nature of the test: Cathepsin enzyme inhibition assay (fluorogenic peptide substrate Z-Val-Val-Arg-AMC), Cathepsin S. Type of test: biochemical, human and mouse. The conditions noted are these: enzyme 1 nM, substrate 20 μM, pH 6.5; read-out: CatS IC50. In short, it runs like this: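 Compounds were combined with 1 nM human or mouse enzyme, and substrate then started the reaction. The buffer was potassium phosphate (100 mM, pH 6.5) containing EDTA-Na 5 mM, Triton X-100 0.001% and […] 5 mM.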

The target in the next test is Cat L (UniProt P07711). Put plainly: Cathepsin enzyme inhibition assay (fluorogenic peptide substrate Z-Val-Val-Arg-AMC), Cathepsin L. To be noted: enzyme 1 nM, substrate 20 μM, pH 6.5; read-out: CatL IC50. Type of test: biochemical, human and mouse. In short, it runs like this:
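Fluorogenic cleavage of Z-Val-Val-Arg-AMC (20 μM) by 1 nM Cat L was monitored at ex 360/em 465 nm for 20 min, the linear phase. The buffer was 100 mM potassium phosphate pH 6.5 with 5 mM EDTA and DTT. IC50 values were derived by standard methods, in μM.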

As usually defined, the IC50 is the concentration needed to halve the response being measured. Regarding `N#CC1(NC(=O)[C@@H]2C[C@@H](S(=O)(=O)c3ccccc3Cl)CN2S(=O)(=O)c2ccc(-c3cnco3)cc2)CC1` [Example 323, (2S,4R)-4-(2-Chloro-benzenesulfonyl)-1-(4-oxazol-5-yl-benzenesulfonyl)-pyrrolidine-2-carboxylic acid (1-cyano-cyclopropyl)-amide], the results for the concentration for half-maximal inhibition (IC50) at Cathepsin S and at Cat L were 0.44 nM and 4820 nM, respectively.
On to `N#CC1(NC(=O)[C@@H]2C[C@@H](S(=O)(=O)c3ccc(N4CCC4)cc3Cl)CN2C(=O)C2(c3ccc(Cl)cc3)CC2)CC1` [Example 328, (2S,4R)-4-(4-Azetidin-1-yl-2-chloro-benzenesulfonyl)-1-[1-(4-chloro-phenyl)-cyclopropanecarbonyl]-pyrrolidine-2-carboxylic acid (1-cyano-cyclopropyl)-amide], for which the IC50 at Cathepsin S was 0.16 nM; at Cat L, 130 nM.
For `N#CC1(NC(=O)[C@@H]2C[C@@H](S(=O)(=O)c3ccc(OCC(F)(F)F)cc3Cl)CN2C(=O)C2(c3cccc(Cl)c3)CC2)CC1` [Example 331, (2S,4R)-1-[1-(3-Chloro-phenyl)-cyclopropanecarbonyl]-4-[2-chloro-4-(2,2,2-trifluoro-ethoxy)-benzenesulfonyl]-pyrrolidine-2-carboxylic acid (1-cyano-cyclopropyl)-amide], the IC50 on Cathepsin S was 0.18 nM; at Cat L it was 1050 nM.
Consider `N#CC1(NC(=O)[C@@H]2C[C@@H](S(=O)(=O)c3ccc(OCC(F)(F)F)cc3Cl)CN2C(=O)C2(c3cccc(Br)c3)CC2)CC1` [Example 332, (2S,4R)-1-[1-(3-Bromo-phenyl)-cyclopropanecarbonyl]-4-[2-chloro-4-(2,2,2-trifluoro-ethoxy)-benzenesulfonyl]-pyrrolidine-2-carboxylic acid (1-cyano-cyclopropyl)-amide], for which the figures for the IC50 at Cathepsin S and on Cat L were 0.195 nM and 580 nM, respectively.
For `COc1cccc(-n2nc(C)cc2N2C[C@H](S(=O)(=O)c3ccccc3C(F)(F)F)C[C@H]2C(=O)NC2(C#N)CC2)c1` [Example 333, (2S,4R)-1-[2-(3-Methoxy-phenyl)-5-methyl-2H-pyrazol-3-yl]-4-(2-trifluoromethyl-benzenesulfonyl)-pyrrolidine-2-carboxylic acid (1-cyano-cyclopropyl)-amide], in that order: 1.9 nM and 7980 nM.
For `COc1cccc(-n2nc(C)cc2N2C[C@H](S(=O)(=O)c3ccccc3C(F)(F)F)C[C@@H]2C(=O)NC2(C#N)CC2)c1` [Example 334, (2R,4R)-1-[2-(3-Methoxy-phenyl)-5-methyl-2H-pyrazol-3-yl]-4-(2-trifluoromethyl-benzenesulfonyl)-pyrrolidine-2-carboxylic acid (1-cyano-cyclopropyl)-amide], the values for the IC50 on Cathepsin S and at Cat L were 780 nM and at least 25000 nM, respectively.
With `N#CC1(NC(=O)[C@@H]2C[C@@H](S(=O)(=O)c3ccccc3C(F)(F)F)CN2c2nnc(C(F)(F)F)s2)CC1` [Example 335, (2S,4R)-4-(2-Trifluoromethyl-benzenesulfonyl)-1-(5-trifluoromethyl-[1,3,4]thiadiazol-2-yl)-pyrrolidine-2-carboxylic acid (1-cyano-cyclopropyl)-amide], the IC50 was 0.484 nM at Cathepsin S and at least 25000 nM at Cat L.
In the case of `Cc1cc(N2C[C@H](S(=O)(=O)c3ccccc3C(F)(F)F)C[C@H]2C(=O)NC2(C#N)CC2)n(CCc2ccccc2)n1` [Example 337, (2S,4R)-1-(5-Methyl-2-phenethyl-2H-pyrazol-3-yl)-4-(2-trifluoromethyl-benzenesulfonyl)-pyrrolidine-2-carboxylic acid (1-cyano-cyclopropyl)-amide], the IC50 at Cathepsin S was 1.65 nM; at Cat L it was 13000 nM.
On to `Cc1cc(N2C[C@H](S(=O)(=O)c3ccccc3C(F)(F)F)C[C@@H]2C(=O)NC2(C#N)CC2)n(CCc2ccccc2)n1` [Example 338, (2R,4R)-1-(5-Methyl-2-phenethyl-2H-pyrazol-3-yl)-4-(2-trifluoromethyl-benzenesulfonyl)-pyrrolidine-2-carboxylic acid (1-cyano-cyclopropyl)-amide], for which the IC50 is 375 nM at Cathepsin S and at least 25000 nM on Cat L.
For `Cc1cc(N2C[C@H](S(=O)(=O)c3ccccc3C(F)(F)F)C[C@H]2C(=O)NC2(C#N)CC2)n(C(C)(C)C)n1` [Example 339, (2S,4R)-1-(2-tert-Butyl-5-methyl-2H-pyrazol-3-yl)-4-(2-trifluoromethyl-benzenesulfonyl)-pyrrolidine-2-carboxylic acid (1-cyano-cyclopropyl)-amide], in that order: 62.5 nM and at least 25000 nM.
For `Cc1cc(N2C[C@H](S(=O)(=O)c3ccccc3C(F)(F)F)C[C@H]2C(=O)NC2(C#N)CC2)n(CC(C)C)n1` [Example 340, (2S,4R)-1-(2-Isobutyl-5-methyl-2H-pyrazol-3-yl)-4-(2-trifluoromethyl-benzenesulfonyl)-pyrrolidine-2-carboxylic acid (1-cyano-cyclopropyl)-amide] the same measures were 0.975 nM and 26400 nM.
Regarding `Cc1cc(N2C[C@H](S(=O)(=O)c3ccccc3C(F)(F)F)C[C@@H]2C(=O)NC2(C#N)CC2)n(CC(C)C)n1` [Example 341, (2R,4R)-1-(2-Isobutyl-5-methyl-2H-pyrazol-3-yl)-4-(2-trifluoromethyl-benzenesulfonyl)-pyrrolidine-2-carboxylic acid (1-cyano-cyclopropyl)-amide], the IC50 at Cathepsin S is 150 nM; on Cat L, at least 25000 nM.
For `COCCOc1ccc(S(=O)(=O)[C@@H]2C[C@@H](C(=O)NC3(C#N)CC3)N(C(=O)C3(c4ccc(Cl)cc4)CC3)C2)c(Cl)c1` [Example 342, (2S,4R)-4-[2-Chloro-4-(2-methoxy-ethoxy)-benzenesulfonyl]-1-[1-(4-chloro-phenyl)-cyclopropanecarbonyl]-pyrrolidine-2-carboxylic acid (1-cyano-cyclopropyl)-amide] the same measures were 0.08 nM and 49.5 nM.
For the compound `N#CC1(NC(=O)C2CC(S(=O)(=O)c3ccccc3C(F)(F)F)CN2c2ccccc2-c2ccccc2)CC1` (centres unmarked) [Example 343, 1-Biphenyl-2-yl-4-(2-trifluoromethyl-benzenesulfonyl)-pyrrolidine-2-carboxylic acid (1-cyano-cyclopropyl)-amide], the concentration for half-maximal inhibition (IC50) is 99.3 nM on Cathepsin S and at least 25000 nM on Cat L.
For `CC1(C(=O)N2C[C@H](S(=O)(=O)c3ccc(F)cc3C(F)(F)F)C[C@H]2C(=O)NC2(C#N)CC2)CC1` [Example 344, (2S,4R)-4-(4-Fluoro-2-trifluoromethyl-benzenesulfonyl)-1-(1-methyl-cyclopropanecarbonyl)-pyrrolidine-2-carboxylic acid (1-cyano-cyclopropyl)-amide], in that order: 0.54 nM and at least 25000 nM.
For `N#CC1(NC(=O)C2CC(S(=O)(=O)c3ccccc3C(F)(F)F)CN2c2cccc3ccccc23)CC1` (centres unmarked) [Example 345, 1-Naphthalen-1-yl-4-(2-trifluoromethyl-benzenesulfonyl)-pyrrolidine-2-carboxylic acid (1-cyano-cyclopropyl)-amide], in that order: 0.915 nM and 70300 nM.
In the case of `N#CC1(NC(=O)[C@@H]2C[C@@H](S(=O)(=O)c3ccc(OCC(F)(F)F)cc3Cl)CN2C(=O)C2(c3ccc(Br)cc3)OCCO2)CC1` [Example 346, (2S,4R)-1-[2-(4-Bromo-phenyl)-[1,3]dioxolane-2-carbonyl]-4-[2-chloro-4-(2,2,2-trifluoro-ethoxy)-benzenesulfonyl]-pyrrolidine-2-carboxylic acid (1-cyano-cyclopropyl)-amide], the IC50 at Cathepsin S is 0.101 nM; on Cat L, 28.5 nM.
For `N#CC1(NC(=O)[C@@H]2C[C@@H](S(=O)(=O)c3ccc(OCC(F)(F)F)cc3Cl)CN2C(=O)C2(c3cccc4ccccc34)CC2)CC1` [Example 347, (2S,4R)-4-[2-Chloro-4-(2,2,2-trifluoro-ethoxy)-benzenesulfonyl]-1-(1-naphthalen-1-yl-cyclopropanecarbonyl)-pyrrolidine-2-carboxylic acid (1-cyano-cyclopropyl)-amide] the same measures were 0.855 nM and 60 nM.
For `N#CC1(NC(=O)[C@@H]2C[C@@H](S(=O)(=O)c3ccc(OCC(F)(F)F)cc3Cl)CN2C(=O)C2(c3ccc4ccccc4c3)CC2)CC1` [Example 348, (2S,4R)-4-[2-Chloro-4-(2,2,2-trifluoro-ethoxy)-benzenesulfonyl]-1-(1-naphthalen-2-yl-cyclopropanecarbonyl)-pyrrolidine-2-carboxylic acid (1-cyano-cyclopropyl)-amide], in that order: 0.17 nM and 51 nM.
For `N#CC1(NC(=O)[C@@H]2C[C@@H](S(=O)(=O)c3ccc(-n4cnc5cnccc54)cc3Cl)CN2C(=O)C2(c3ccc(Cl)cc3)CC2)CC1` [Example 349, (2S,4R)-4-(2-Chloro-4-imidazo[4,5-c]pyridin-1-yl-benzenesulfonyl)-1-[1-(4-chloro-phenyl)-cyclopropanecarbonyl]-pyrrolidine-2-carboxylic acid (1-cyano-cyclopropyl)-amide] the same measures were 0.03 nM and 220 nM.
With `N#CC1(NC(=O)[C@@H]2C[C@@H](S(=O)(=O)c3ccc(-n4ccc5ncnc-5c4)cc3Cl)CN2C(=O)C2(c3ccc(Cl)cc3)CC2)CC1` [Example 350, (2S,4R)-4-(2-Chloro-4-imidazo[4,5-c]pyridin-5-yl-benzenesulfonyl)-1-[1-(4-chloro-phenyl)-cyclopropanecarbonyl]-pyrrolidine-2-carboxylic acid (1-cyano-cyclopropyl)-amide], the IC50 at Cathepsin S was found to be 0.06 nM; on Cat L, 260 nM.
For `Cc1cc(-n2nc(C)cc2N2C[C@H](S(=O)(=O)c3ccccc3C(F)(F)F)C[C@H]2C(=O)NC2(C#N)CC2)cc(C)n1` [Example 351] the same measures were 19.5 nM and at least 25000 nM.

The values are drawn from patent publication US8163793B2, “Proline derivatives” (Hoffman-La Roche Inc., priority 2009, dated 2012).
